Like-named read-outs stand apart in the source and are kept apart here. Bounds are passed on as bounds.

Consider eight compounds from PMC6452907 (Polyhedron, 2019).

The test system of data set [1] is L. donovani promastigotes. The data set can be described thus: In vitro antileishmanial assay against L. donovani promastigotes. In kind it is cell-based. The following applies: Leishmania donovani, 72 h; for IC50: read-out: L. donavani Promastigotes IC50; for IC90: read-out: L. donavani Promastigotes IC90.
In data set [2] the test system is L. donovani axenic amastigotes. The data set can be described thus: In vitro antileishmanial assay against L. donovani axenic amastigotes. Format: cell-based. The following applies: Leishmania donovani, 72 h; for IC50: read-out: L. donavani Amastigotes IC50; for IC90: read-out: L. donavani Amastigotes IC90.
For data set [3], the system named is L. donovani intracellular amastigotes in THP1 cells. Format: cell-based, Leishmania donovani.
A short description of data set [4]: Cytotoxicity against THP1 cell cultures. The following applies: human, THP1 cell cultures. Format: cell-based, human.
The subject of data set [5] is THP1 cells. The data set can be described thus: Cytotoxicity against THP1 cell cultures. In kind it is cell-based, human. The following applies: THP1 cells; for IC50: read-out: THP1 cells (Cytotoxicity) IC50; for IC90: read-out: THP1 cells (Cytotoxicity) IC90.
Data set [6] concerns L. donovani amastigotes in mouse macrophages. The following applies: cited from earlier work.
The mark [7] stands for this setting: read-out: L. donavani Amastigotes + THP1 IC50, intracellular amastigotes in differentiated THP1 macrophages.
[8] abbreviates: read-out: L. donavani Amastigotes + THP1 IC90, intracellular amastigotes in differentiated THP1 macrophages.

As for `C[C@@H]1[C@H](O)[C@@H](C)/C=C/C=C/C=C/C=C/C=C/C=C/C=C/[C@H](O[C@@H]2O[C@H](C)[C@@H](O)[C@H](N)[C@@H]2O)C[C@@H]2O[C@](O)(C[C@@H](O)C[C@@H](O)[C@H](O)CC[C@@H](O)C[C@@H](O)CC(=O)O[C@H]1C)C[C@H](O)[C@H]2C(=O)O` [Amphotericine B], the IC50 in data set [1] is 0.134 µM; in data set [2] it was 0.79 µM; in data set [3] (Leishmania donovani, THP-1, read-out: L. donavani Amastigotes + THP1 IC50), 0.48 µM; in data set [4], more than 10 µM. For the same compound, the IC90 in data set [1] was 0.262 µM; in data set [2], 0.959 µM; in data set [3] (Leishmania donovani, THP-1, read-out: L. donavani Amastigotes + THP1 IC90), 1.94 µM; in data set [4], more than 10 µM.
For `CN1CCCN2CCN(CCCN(Cc3ccccc3)CC2)CC1` [Bn1Me1Bcyclam (L2)], the 50% inhibitory concentration (IC50) in data set [3] (setting [7]) and in data set [5] was more than 20 µM in each case. In addition, the IC90 in data set [3] (setting [8]) and in data set [5] was more than 20 µM in each case.
Consider `c1ccc(CN2CCN3CCN(CC2)CCN(Cc2ccccc2)CC3)cc1` [Bn2Bcyclen (L3)], for which the IC50 in data set [3] (setting [7]) and in data set [5] was more than 25 µM each time. The IC90 in data set [3] (setting [8]) and in data set [5] was more than 25 µM in each case.
For the compound `c1ccc(CN2CCCNCCN(Cc3ccccc3)CCCNCC2)cc1` [Bn2Cyclam (L10), 1,8-dibenzylcyclam], the 50% inhibitory concentration (IC50) in data set [3] (setting [7]) is 12.9 µM; in data set [5], more than 25 µM. The figures for the IC90 in data set [3] (setting [8]) and in data set [5] were 13.2 µM and more than 25 µM, respectively.
For `c1ccc(CN2CCN3CCCN(CC2)CCN(Cc2ccccc2)CC3)cc1` [Bn2PBCyclen (L4)], the results for the half-maximal inhibitory concentration (IC50) in data set [3] (setting [7]) and in data set [5] were 18.2 µM and more than 25 µM, respectively. Moreover, the IC90 in data set [3] (setting [8]) and in data set [5] was more than 25 µM in each case.
In the case of `Cl.Cl.Cl.N=C(N)c1cccc(/C=N/N=C(\N)N/N=C/c2cccc(C(=N)N)c2)c1` [CGP40215A], the “concentration inhibiting growth of L. donovani amastigotes in mouse macrophages” value in data set [6] (mouse macrophages) is “up to 90 μM”.
As to `c1ccc(CNCCCNCCCCCCCNCCCNCc2ccccc2)cc1` [MDL27695], in data set [6] (at a 1 μM concentration), the “elimination of L. donovani amastigotes from mouse macrophages” value is 77–100%.
Regarding `N=C(N)c1ccc(OCCCCCOc2ccc(C(=N)N)cc2)cc1` [Pentamidine], the 50% inhibitory concentration (IC50) in data set [1] is 2.93 µM; in data set [2], 20.4 µM; in data set [4], more than 20 µM. The concentration for an effect of 90% (IC90) was 6.52 µM in data set [1], more than 25 µM in data set [2] and more than 25 µM in data set [4].
